Patent publication US20100029598A1, “Extended Benzamide Derivatives as Modulators of the EP2 Receptor” (Bayer Schering Pharma AG, priority 2008, published 2010)

Tests used:
[1] = system: cumulus-oocyte complexes (cumulus expansion); assay: Cumulus expansion assay in vitro; type: cell-based, mice; details: competing with PGE2
Description: 2.2 Cumulus Expansion Assay In Vitro
Folliculogenesis was induced in immature female mice (strain : CD1 (ICR) from Charles River) at an age of 14-18 days by a single dose (intraperitoneal) of 10 I.U. of PMSG (Pregnant Mare Serum Gonadotropin; Sigma G-4877, Lot 68H0909). 47-50 hours after the injection, the ovaries were removed and the cumulus-oocyte complexes were removed. The cumulus complex is not yet expanded at this stage.
The cumulus-oocyte complexes were then incubated with prostaglandin E2 (PGE2) (0.3 μM), vehicle control (ethanol) or test substances for 20-24 hours.
Medium: alpha-MEM medium with 0.1 mM IBMX, pyruvates (0.23 mM) glutamines (2 mM), pen/strep 100 IU/ml pen. and 100 μg/ml strep. and HSA (8 mg/ml). Cumulus expansion was then established through the division into four stages (according to Vanderhyden et al. Dev Biol. August 1990;140(2):307-317).

[2] = biological target: T1, human Prostaglandin E2 (Subtype EP2) receptor (Homo sapiens, UniProt P43116); assay: cAMP agonism assay (cellular agonism test); type: cell-based
T1 construct: host or cells: cells in a cell culture plate
Source text: (§1) The binding of PGE2 to the EP2 subtype of the human PGE2 receptor induces activation of membrane-associated adenylate cyclases and leads to the formation of cAMP. In the presence of the phosphodiesterase inhibitor IBMX, cAMP which has accumulated due to this stimulation and been released by cell lysis is employed in a competitive detection method. In this assay, the cAMP in the lysate competes with cAMP-XL665 for binding of an Eu cryptate-labelled anti-cAMP antibody.
(§2) The two lo signals are measured in a suitable measuring instrument with a time lag, i.e. after the background fluorescence has declined.
1.2.2 Agonism Assay (Data for each Well of a 384-Well Plate): […]
After incubation at room temperature (RT; volume: ˜15 μl) for 60 minutes, the reaction was then stopped by adding 5 μl of lysis buffer and incubated at RT for a further 20 min (volume: ˜20 μl). The cell lysate was then transferred into a measuring plate and measured in accordance with the manufacturer's instructions (cyclic AMP kit Cisbio International #62AMPPEC).

[3] = biological target: T1, human Prostaglandin E2 (Subtype EP2) receptor; assay: cAMP antagonism assay (HTRF cAMP detection, in presence of PGE2); type: cell-based; details: cAMP antagonism test
Source text: 1. Detection of the Antagonism of the Human Prostaglandin E2 (Subtype EP2) Receptor Signal
1.1 Principle of Detection
as §1, §2
1.2.1 Antagonism assay (data for each well of a 384-well plate):
The substance solutions (0.75 μl) introduced into an assay plate and 30% DMSO were dissolved in 16 μl of a KRSB+IBMX stimulation solution (1×Krebs-Ringer Bicarbonate Buffer; Sigma-Aldrich # K-4002; including 750 μM 3-isobutyl-1-methylxanthine Sigma-Aldrich # I-7018), and then 15 μl thereof were transferred into a media-free cell culture plate which had been washed with KRSB shortly beforehand.
After preincubation at room temperature (RT) for 30 minutes, 5 μl of a 4×PGE2 solution (11 nM) were added, and incubation was carried out in the presence of the agonist at RT for a further 60 min (volume: ˜20 μl) before the reaction was then stopped by adding 5 μl of lysis buffer and incubated at RT for a further 20 min (volume: ˜25 μl). The cell lysate was then transferred into a measuring plate and measured in accordance with the manufacturer's information (cyclic AMP kit Cisbio International #62AMPPEC).

T1 sequence (P43116 whole entry): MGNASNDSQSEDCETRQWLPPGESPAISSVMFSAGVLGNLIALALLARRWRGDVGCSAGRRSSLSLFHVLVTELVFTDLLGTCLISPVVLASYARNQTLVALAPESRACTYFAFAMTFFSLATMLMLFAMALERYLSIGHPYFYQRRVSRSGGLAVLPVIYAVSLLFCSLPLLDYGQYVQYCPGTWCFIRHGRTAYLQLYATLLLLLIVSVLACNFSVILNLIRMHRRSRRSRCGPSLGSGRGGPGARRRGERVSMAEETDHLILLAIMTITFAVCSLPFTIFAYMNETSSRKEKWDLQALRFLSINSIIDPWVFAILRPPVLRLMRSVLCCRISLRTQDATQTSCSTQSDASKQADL

| Compound | IC50 [3] [nM] | further results |
| --- | --- | --- |
| CC(C)Oc1ccc2c(=O)c3cc(C(=O)O)ccc3oc2c1 [AH 6809, reference compound] | – | suppression of cumulus expansion ([1]; concentration of 100-200 μM): approx. 30% |
| Cc1[nH]c2c(Cl)cccc2c1CCNC(=O)c1cc2cc(F)ccc2[nH]1 [Example 7, N-[2-(7-chloro-2-methyl-1H-indol-3-yl)ethyl]-5-fluoro-1H-indole-2-carboxamide] | 47 | effect in the cellular agonism test [2]: no inhibition |
| COc1ccc(C(=O)NCCc2c(C)[nH]c3c(Cl)cccc23)cc1OC [Example 1, N-[2-(7-chloro-2-methyl-1H-indol-3-yl)ethyl]-3,4-dimethoxy-benzamide] | 320 | – |
| Cc1[nH]c2c(Cl)ccc(F)c2c1CCNC(=O)c1cc2cc(F)ccc2[nH]1 [Example 8, N-[2-(7-chloro-4-fluoro-2-methyl-1H-indol-3-yl)ethyl]-5-fluoro-1H-indole-2-carboxamide] | 120 | suppression of cumulus expansion ([1]; concentration 5 μM): approx. 60% |
| COc1ccc(C(=O)NCCc2c(C)[nH]c3c(Cl)ccc(Cl)c23)cc1OC [Example 5, N-[2-(4,7-dichloro-2-methyl-1H-indol-3-yl)ethyl]-3,4-dimethoxybenzamide] | 1900 | – |

The next lines start with results.

| IC50 [3] [nM] | Compound | further results |
| --- | --- | --- |
| 670 | O=C(NCCc1c(C(F)(F)F)[nH]c2c(Cl)cccc12)c1cc2cc(Cl)ccc2[nH]1 [Example 30, N-[2-(7-chloro-2-trifluoromethyl-1H-indol-3-yl)ethyl]-5-chloro-1H-indole-2-carboxamide] | – |
| 720 | COc1ccc(C(=O)NCCc2c(C)[nH]c3c(Cl)ccc(C)c23)cc1OC [Example 17, N-[2-(7-chloro-2,4-dimethyl-1H-indol-3-yl)ethyl]-3,4-di-methoxybenzamide] | – |
